Measurements as given in patent US10675286B2, “Heterocyclic compounds and uses thereof” (Infinity Pharmaceuticals, Inc., priority 2014, dated 2020).
Where two headings read alike, the source gives them in different places.

What was measured:
[1] = test system: haematological malignancies; conditions: cited from earlier work
[2] = biological target: PI3K γ (Homo sapiens (Human), UniProt P48736); test: PI3-Kinase Promega ADP-Glo Max assay, γ isoform; assay type: biochemical
Experimental: Promega ADP-Glo Max assay kit (Cat. No. V7002) was utilized to determine IC50 values for α, β, δ and γ isoforms of human Class I PI3 kinases (Millipore). […] Reactions were incubated at room temperature for 2 hours followed by addition of 25 uL of stop solution. After a 40-minute incubation at room temperature, 50 uL of Promega detection mix was added followed by incubation for 1 hour at room temperature. Plates were then read on Envision plate reader in luminescence mode. Data was converted to % inhibition using the following equation below:
[formula] where S is the sample luminescence, Pos is a positive control without added PI3K, Neg is the negative control without added compound. Data was then plotted as % inhibition vs compound concentration.

[3] = biological target: PI3K-δ (Homo sapiens (Human), UniProt O00329); test: RAJI p110 δ assay (phospho-AKT in anti-human IgM stimulated RAJI cells); assay type: cell-based
Chain of PI3K-δ (O00329 whole entry): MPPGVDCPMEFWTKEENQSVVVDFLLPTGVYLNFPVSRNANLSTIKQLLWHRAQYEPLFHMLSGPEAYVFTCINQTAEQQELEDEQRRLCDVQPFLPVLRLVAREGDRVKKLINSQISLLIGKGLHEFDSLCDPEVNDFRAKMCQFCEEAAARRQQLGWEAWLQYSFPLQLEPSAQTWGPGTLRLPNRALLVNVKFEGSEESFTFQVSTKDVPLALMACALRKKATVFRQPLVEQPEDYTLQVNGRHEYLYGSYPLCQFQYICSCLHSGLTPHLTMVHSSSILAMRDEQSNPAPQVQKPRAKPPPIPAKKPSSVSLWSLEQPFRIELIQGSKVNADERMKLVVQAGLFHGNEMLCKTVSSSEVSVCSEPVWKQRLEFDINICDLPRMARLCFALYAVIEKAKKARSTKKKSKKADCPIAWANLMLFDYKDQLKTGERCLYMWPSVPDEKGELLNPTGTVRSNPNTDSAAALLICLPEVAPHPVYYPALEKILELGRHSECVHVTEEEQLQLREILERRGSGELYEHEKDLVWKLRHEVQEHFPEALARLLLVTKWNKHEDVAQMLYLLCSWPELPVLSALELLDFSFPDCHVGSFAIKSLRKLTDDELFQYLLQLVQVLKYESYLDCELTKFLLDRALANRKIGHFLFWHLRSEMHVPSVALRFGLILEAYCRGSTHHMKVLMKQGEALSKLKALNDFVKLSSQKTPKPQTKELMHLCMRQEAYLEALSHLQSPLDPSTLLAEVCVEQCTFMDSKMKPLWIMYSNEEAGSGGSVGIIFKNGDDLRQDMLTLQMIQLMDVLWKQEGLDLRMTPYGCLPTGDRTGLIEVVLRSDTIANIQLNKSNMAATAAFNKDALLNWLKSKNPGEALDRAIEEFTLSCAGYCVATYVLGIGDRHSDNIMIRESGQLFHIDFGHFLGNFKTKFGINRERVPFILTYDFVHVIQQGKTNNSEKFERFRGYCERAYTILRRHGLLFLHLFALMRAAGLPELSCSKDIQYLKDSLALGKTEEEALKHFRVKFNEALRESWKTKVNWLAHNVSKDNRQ
Chain of PI3K-δ (P27986 whole entry partner): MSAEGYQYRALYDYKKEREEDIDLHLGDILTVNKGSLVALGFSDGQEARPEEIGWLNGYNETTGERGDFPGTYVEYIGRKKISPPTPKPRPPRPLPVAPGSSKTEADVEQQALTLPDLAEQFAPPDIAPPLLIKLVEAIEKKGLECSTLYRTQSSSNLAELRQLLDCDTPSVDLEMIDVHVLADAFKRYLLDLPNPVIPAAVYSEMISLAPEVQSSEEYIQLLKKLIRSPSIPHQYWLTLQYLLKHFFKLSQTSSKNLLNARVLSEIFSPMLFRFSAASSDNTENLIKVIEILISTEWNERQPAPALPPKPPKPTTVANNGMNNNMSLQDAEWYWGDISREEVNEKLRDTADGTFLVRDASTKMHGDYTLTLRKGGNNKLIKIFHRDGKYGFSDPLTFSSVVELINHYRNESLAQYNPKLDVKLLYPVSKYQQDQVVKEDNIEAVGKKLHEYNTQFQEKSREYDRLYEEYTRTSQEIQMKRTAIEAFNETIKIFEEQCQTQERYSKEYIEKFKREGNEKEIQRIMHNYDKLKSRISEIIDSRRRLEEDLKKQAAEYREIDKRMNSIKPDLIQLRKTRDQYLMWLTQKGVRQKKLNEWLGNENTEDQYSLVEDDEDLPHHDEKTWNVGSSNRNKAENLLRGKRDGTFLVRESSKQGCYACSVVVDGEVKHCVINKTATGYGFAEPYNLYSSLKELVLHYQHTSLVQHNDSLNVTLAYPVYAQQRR
Experimental: Reduction of phospho-AKT is indicative of compounds that may inhibit B-cell proliferation and function in certain diseases.
Certain compounds provided herein were tested in RAJI cell model using procedures as described above.

[4] = biological target: PI3K-γ (Mus musculus (Mouse), UniProt Q9JHG7); test: Raw264.7 p110 γ assay (C5a-mediated phospho-AKT in RAW264.7 macrophages); assay type: cell-based
Chain of PI3K-γ (Q9JHG7 whole entry): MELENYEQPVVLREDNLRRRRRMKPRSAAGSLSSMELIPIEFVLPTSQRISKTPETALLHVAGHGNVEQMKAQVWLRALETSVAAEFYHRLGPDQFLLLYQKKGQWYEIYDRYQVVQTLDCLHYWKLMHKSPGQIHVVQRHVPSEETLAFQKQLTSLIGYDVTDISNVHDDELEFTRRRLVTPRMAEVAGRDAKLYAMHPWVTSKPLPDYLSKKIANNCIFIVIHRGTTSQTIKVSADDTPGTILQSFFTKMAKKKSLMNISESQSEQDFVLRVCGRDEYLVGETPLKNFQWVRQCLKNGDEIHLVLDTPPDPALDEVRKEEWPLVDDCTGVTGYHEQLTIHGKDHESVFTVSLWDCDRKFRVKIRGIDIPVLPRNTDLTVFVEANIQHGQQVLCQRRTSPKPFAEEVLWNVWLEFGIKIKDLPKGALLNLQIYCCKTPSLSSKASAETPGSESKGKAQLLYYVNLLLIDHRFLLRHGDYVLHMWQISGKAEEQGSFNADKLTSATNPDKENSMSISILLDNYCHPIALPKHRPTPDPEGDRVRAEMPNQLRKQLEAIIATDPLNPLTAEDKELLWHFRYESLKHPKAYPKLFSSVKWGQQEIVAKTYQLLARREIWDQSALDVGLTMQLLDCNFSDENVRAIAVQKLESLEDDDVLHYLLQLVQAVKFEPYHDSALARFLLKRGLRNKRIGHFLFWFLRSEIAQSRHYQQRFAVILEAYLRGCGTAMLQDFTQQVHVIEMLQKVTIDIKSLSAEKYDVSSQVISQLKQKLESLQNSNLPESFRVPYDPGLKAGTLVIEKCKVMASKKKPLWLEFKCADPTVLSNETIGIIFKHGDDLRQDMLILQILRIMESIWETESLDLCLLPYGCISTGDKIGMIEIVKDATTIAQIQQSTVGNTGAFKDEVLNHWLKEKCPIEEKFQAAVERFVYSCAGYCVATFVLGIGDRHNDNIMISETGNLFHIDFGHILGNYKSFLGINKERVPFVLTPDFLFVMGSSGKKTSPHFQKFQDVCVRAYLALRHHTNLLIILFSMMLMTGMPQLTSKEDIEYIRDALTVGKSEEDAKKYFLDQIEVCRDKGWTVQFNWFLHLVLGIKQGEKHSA
From the text: Briefly, serum-starved RAW264.7 cells are stimulated with a known GPCR agonist C5a. […] Cells can be treated with test compounds prior to, simultaneously with, or subsequent to the stimulation by C5a. RAW 264.7 cells respond to the complement component fragment C5a through activation of the C5a receptor, and the C5a receptor activates macrophages and induces cell migration.

[5] = Pharmacokinetics of Compound 88 in female C57 mice, PO; assay type: in vivo, mouse; conditions: for tlast / AUC: female C57 mice; for AUC: mouse, plasma, read-out: AUC0_INF
Experimental: Animals were weighed daily prior to dosing. […] On subsequent dosing days, the animals' condition was noted prior to dosing; the animals were observed within 4 hours of dosing, and at the end of the day.
Samples were collected at pre-dose 0.25, 0.5, 1, 2, 4, 6 and 24 h following the first dose on day 1 and pre-dose (trough), 0.25, 0.5, 1, 2, 4, 6 and 24 h following the final dose on day 3. Animals received a single oral dose daily for 3 consecutive days. Blood was collected by retro-orbital bleeding for all time points on day 1. All other blood sampling was collected by a cardiac puncture. Blood was collected into K2EDTA tubes and placed on wet ice. Within 15 min of collection, the sample was centrifuged at 10,000 rpm at 4° C. for 10 min in a bench top centrifuge and the plasma transferred to a new microcentrifuge tube.
A similar study was carried out using Compound 88. […] Below is a table that details the results for Compound 88: […]

[6] = test system: human T cells; test: Concanavalin A-induced model for activation of human T cells (IFN-γ); assay type: cell-based
[7] = test system: CXCL12-induced T cell migration; test: CXCL12-induced T-cell migration in CLL PBMCs (transwell); assay type: cell-based; conditions: Homo sapiens
Experimental: Specifically, the material used were media (RPMI+0.5% Fetal Bovine Serum+Pen/Strep), total CLL PBMCs (AllCells), CoStar 24-transwell plates ([…]) #3421, BD Cytofix Fixation Buffer (#554655), BD FBS Stain Buffer (BD Biosciences, 554656), Deep 96-well plate (Axygen, P-2ML-SQ-C), rhCXCL12 (R&D, 350-NS-050), CD-19 APC Cy7 (BD #348794 1:20), CD3-PerCPCy5.5 (BD #560835, 1:20), CD5-PE (Biolegend #300608, 1:5), CD4-FITC (BD #561842, 1:20), and CD8-APC (BD #561953, 1:20).
Total CLL human PBMCs were preincubated with Compound AA or BB in media for 45 minutes at 37° C. […] After the 45 minutes of compound preincubation, 500-750K CLL PBMCs were placed in the upper chamber of the transwell insert in a total volume of 100 uL. The cells were allowed to migrate for 2-4 hours at 37° C. The inserts were removed, and 550 uL media from lower chamber were transferred into a deep 96-well plate. The cells were spun at 1280 rpm for 5 minutes and flick media. The cells were resuspended in 400 uL BD Cytofixation buffer and incubated at RT for 10 minutes. 1 mL BD FBS stain buffer was added. The cells were spun at 1280 rpm and fixation buffer was disposed. The cells were resuspended in 100 uL of CD3,4,8,5,19 antibody cocktail made up in BD FBS stain buffer, which was then incubated at room temperature in the dark for 30-60 minutes. 1 mL BD FBS stain buffer was added to each well, which was then spun and flicked. The cells were resuspended in 150 uL FBS stain buffer and transferred to FACS tubes already containing 150 uL FBS stain buffer. Each sample was read on the FACS for 25 seconds. Gate on CD3, 4, 8 and CD19/5 subpopulations individually and calculate average migration index from triplicate samples. See e.g., Borge et al., haematologica 2010, 95(5): 768-775; de Rooij et al., Blood 2012, 119: 2590-2594.

[8] = test system: LPS-induced neutrophil influx into BALF; test: LPS-induced neutrophilia in rats, oral administration; assay type: in vivo; conditions: rat, p.o., 4 hours post-LPS challenge; dose dependent
Experimental: (§1) This study also includes assessment of the exposure to the compounds in plasma and lung tissues.
(§2) Ref C is budesonide p.o. The compound was administered p.o. and about 1 hour later, LPS was administered intra-tracheally and plasma was collected. After about 5 hours, plasma and bronchoalveolar lavage samples were collected.

[9] = test system: IL-8 induced neutrophil migration; test: IL-8 driven murine air pouch model; assay type: in vivo; conditions: mouse; Compound BB 0.1, 0.3, 1, 3 mg/kg; Compound AA 10, 25, about 50 mg/kg; vs vehicle
From the text: IL-8 chemoattracts and activates neutrophils.

[10] = Oral PK in the rat LPS studies (free plasma concentration); assay type: in vivo; conditions: for Free Plasma Conc (nM): p.o. 0.2 mg/kg
Experimental: as §1, §2

[11] = test system: CXCL12 induced p-AKT in bone marrow derived macrophages; test: CXCL12-induced p-AKT induction assay in differentiated, polarized macrophages; assay type: cell-based, mouse
From the text: Long bones from young C57B6 mice were harvested and bone marrow was extruded by gentle lavage of the bone marrow cavities with a 28 gauge needle. Red blood cells were removed using red blood cell lysis buffer (Sigma). Bone marrow cells were differentiated to macrophages using MCSF for 6 days (RPMI and 20% FCS) with one media change (with removal of all non-adherent cells) at day 3. Macrophages were polarized into M0 (MCSF), M1 (MCSF, IFNγ, and LPS for 1 day), or M2 (MCSF, IL4 for 2 days).
Polarized macrophages were lifted with Acutase, and plated at 0.5M cells per well (0.5 ml) in a deep well (2 ml) non adherant plate in polarization media for 1 hour. […] CXCL12 was added, and the cells were mixed on a plate shaker for 2 minutes. 1 ml of 37 degree FACS Lyse/fix buffer (BD bioscience) was added and the plate was mixed for 1 minute. The plates were spun and decanted and frozen at −80° C. Phospho AKT staining with anti Phospho AKT 473 PERCP labeled (Cell Signaling Technologies) was performed and measured by flow cytometry. Total cell MFI was used to calculate the effect of tested compound on CXCL12 induction of phospho AKT.

[12] = test system: T cell activation (IFN-γ in response to ConA); test: T cell activation in human whole blood (Con-A, IFN-γ readout); assay type: cell-based; conditions: 24 hours, read-out: IC50, T cell activation as measured by inhibition of IFN-γ
Experimental: The purpose of this study is to evaluate the effect of various antigens (Con-A) in T cell activation in Human Whole Blood vs. 1:1 Diluted Blood using test compounds at 24 hour time-point.
T-cell Activation Media includes RPMI-1000 ml, MEM NEAA-10 ml, Sodium Pyruvate (100 mM)-10 ml, Pen Strep-10 ml, 2-Mercaptoethanol-1 ml, and FBS-100 ml. 100 ul of whole blood were plated in 96 well plate. Used only the 60 inside wells and filled the outside with media or PBS. Diluted human whole blood with 5% Serum RPMI 1640 1:1 and plate 100 ul in 96 well plate. Used only the 60 inside wells and filled the outside with media or PBS.
The compound was diluted using DMSO (Sigma hybridmax). For 1000 nM highest concentration starting from a 10 mM stock, added 300 ul of DMSO into deep well plates. To the highest concentration add 10 ul of 10 mM compound stock.
A media plate was prepared from DMSO plate by taking 100 ul and go into 900 ul media in new deep well plate, taping plate, and putting on mixer for 5 minutes.
The rested cell plates were removed from incubator. Added 12 uL of diluted compound from media plate (final DMSO is 1%), and incubated for 45 minutes.
Con-A was prepared as follows: 200 ul stock into 1 ml Media, 100 ul of that into 1 ml Media, 100 ul of that into 1 ml Media. […] This was analyzed after 24 Hours.
10× stock in media, added 12 ul per well. […] Analyzed with multiplex elisa from MSD. […]

[13] = test system: LLC tumor brei; test: LLC tumor brei model, Compound BB with or without cyclophosphamide; assay type: in vivo, mouse; conditions: Compound BB 15 mg/kg QD PO, cyclophosphamide 50 mg/kg EOD IP
Experimental: In this experiment, treatment began when tumors reached approx. 150 mm^3—around day 12. Caliper and xenogen images were monitored. Treatment groups n=13-15/group. […] Samples for FACs analysis were collected on day 23 post implant. Using FACS, cells were assayed for the level of CD11b and Gr-1.

Chain of PI3K γ (P48736 whole entry, canonical isoform): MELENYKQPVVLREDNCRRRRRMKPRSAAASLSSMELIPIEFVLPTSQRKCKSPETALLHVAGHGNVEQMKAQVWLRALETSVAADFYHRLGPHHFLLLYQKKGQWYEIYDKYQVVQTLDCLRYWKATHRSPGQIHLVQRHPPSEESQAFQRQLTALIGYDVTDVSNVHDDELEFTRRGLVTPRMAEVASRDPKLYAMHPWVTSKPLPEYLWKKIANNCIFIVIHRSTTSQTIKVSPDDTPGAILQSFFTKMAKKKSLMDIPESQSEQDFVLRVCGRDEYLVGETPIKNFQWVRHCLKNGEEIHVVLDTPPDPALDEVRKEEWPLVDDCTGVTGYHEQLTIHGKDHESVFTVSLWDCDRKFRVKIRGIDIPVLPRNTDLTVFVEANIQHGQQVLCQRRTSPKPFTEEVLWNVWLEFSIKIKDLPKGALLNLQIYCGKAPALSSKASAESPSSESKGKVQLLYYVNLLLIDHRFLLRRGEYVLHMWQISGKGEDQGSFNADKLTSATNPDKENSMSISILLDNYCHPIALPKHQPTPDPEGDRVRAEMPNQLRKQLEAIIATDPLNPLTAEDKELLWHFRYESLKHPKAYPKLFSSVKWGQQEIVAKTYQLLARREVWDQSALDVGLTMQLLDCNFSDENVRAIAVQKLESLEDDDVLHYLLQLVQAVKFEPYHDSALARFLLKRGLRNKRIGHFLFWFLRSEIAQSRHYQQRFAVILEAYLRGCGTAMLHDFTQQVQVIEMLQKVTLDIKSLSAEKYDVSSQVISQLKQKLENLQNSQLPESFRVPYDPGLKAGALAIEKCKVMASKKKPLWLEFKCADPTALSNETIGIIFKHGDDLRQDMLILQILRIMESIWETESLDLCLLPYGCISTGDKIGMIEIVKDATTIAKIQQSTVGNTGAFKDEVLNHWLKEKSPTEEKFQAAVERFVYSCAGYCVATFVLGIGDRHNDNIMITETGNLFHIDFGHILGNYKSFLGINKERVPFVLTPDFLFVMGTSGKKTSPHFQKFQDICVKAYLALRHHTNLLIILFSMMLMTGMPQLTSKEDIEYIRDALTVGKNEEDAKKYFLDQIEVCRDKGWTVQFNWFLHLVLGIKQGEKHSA

Compound: CC[C@H](Nc1ncnc2[nH]cnc12)c1nc2cccc(F)c2c(=O)n1-c1ccccc1 [CAL-101]
- clinical activity in CLL ([1]; phase 1 trial, patients with poor prognostic characteristics): showed activity
- clinical activity in mantle cell lymphoma and refractory non Hodgkin's lymphoma ([1]; single agent): active

Compound: C[C@H](NC(=O)c1c(N)nn2cccnc12)c1cc2cccc(C#Cc3ccn[nH]3)c2c(=O)n1-c1ccccc1 [Compound 43]
- PI3K δ/PI3K γ IC50 (selectivity) [2]: Y (Y = 50 to <850)
- IC50 [3]: 100 to 500 nM
- RAJI δ/Raw264.7 γ IC50 (selectivity) [4]: X (X = 10 to <50)
- IC50 ([4]; phospho-AKT): 1 to 50 nM

Compound: Cc1c(C#Cc2cccc3nc([C@H](C)NC(=O)c4c(N)nn5cccnc45)n(-c4ccccc4)c(=O)c23)cnn1C [Compound 88, (S)-2-amino-N-(1-(5-((1,5-dimethyl-1H-pyrazol-4-yl)ethynyl)-4-oxo-3-phenyl-3,4-dihydroquinazolin-2-yl)ethyl)pyrazolo[1,5-a]pyrimidine-3-carboxamide]
- tlast ([5]; 2 mg/kg PO NMP): 8 h
- tlast ([5]; 7.5 mg/kg PO NMP): 24 h
- tlast ([5]; 15 mg/kg PO NMP): 24 h
- Stability in serum ([5]; female C57 mice, 2, 7.5 or 15 mg/kg PO): good stability in serum
- AUC ([5]; 7.5 mg/kg PO NMP): 20700 ng·h/mL
- AUC ([5]; 15 mg/kg PO NMP): 81200 ng·h/mL

Compound: CC(C)n1c([C@H](C)Nc2ncnc(N)c2C#N)cc2cccc(-c3ccc(=O)n(C)c3)c2c1=O [Compound AA, reference compound]
- inhibition of IFN-γ [6]: highly selective inhibitor
- EC50 ([7]; T-cell subset CD3+, read-out: EC50 (nM), CXCL12 induced T-cell migration): 630 ± 71 nM
- EC50 ([7]; T-cell subset CD4+, read-out: EC50 (nM), CXCL12 induced T-cell migration): 726 ± 230 nM
- EC50 ([7]; T-cell subset CD8+, read-out: EC50 (nM), CXCL12 induced T-cell migration): 423 ± 290 nM
- EC50 ([7]; read-out: EC50, inhibition of CXCL12-induced CD3+ T cell migration (FIG. 8)): 694 nM
- Neutrophil in bronchoalveolar lavage fluid (BALF) [8]: reduced neutrophil in bronchoalveolar lavage fluid (BALF)
- IL-8 induced neutrophil migration into air pouch [9]: does not inhibit IL-8 induced neutrophil migration
- Free plasma levels relative to IC90 of the target isoform ([10]; highest dose levels, gamma for Compound BB, delta for Compound AA): equal or greater than the IC90
- Free Plasma Conc (nM) ([10]; 1.5 h (time of LPS challenge)): BLQ
- Free Plasma Conc (nM) ([10]; […] (about 4 hours post LPS challenge)): BLQ
- IC50, CXCL12 induced p-AKT ([11]; differentiated and M1 polarized macrophage): did not significantly inhibit
- IC50, CXCL12 induced p-AKT ([11]; differentiated and M2 polarized macrophage): did not significantly inhibit
- IC50 [12]: 3 nM

Compound: O=P1(N(CCCl)CCCl)NCCCO1 (centres unmarked) [cyclophosphamide, reference compound]
- Tumor growth (FIG. 48) [13]: reduced tumor growth by about the same amount
